US20250319061A1, “COMBINATION TREATMENT FOR ADENOCARCINOMA” (The General Hospital Corporation, priority 2022, published 2025)

Experiments:
[1] = test system: patient-derived PDAC cell lines; experiment: RNA-ISH and total RNA sequencing of E/QM (EMT) signatures after Oxo treatment; type: cell-based, human; details: for E gene expression (RNA-ISH and RNA sequencing) / QM gene expression (RNA-ISH and RNA sequencing): Oxo 10 μM, 10 days, across PDAC cell lines
Description: (c) PDAC3, 9 and 6 cells were treated with Oxo (10 μM) for 10 days in tumorsphere (3D) condition.

QM and E PDACs = experiment: Relative cell growth in 3D condition upon FFX and/or Oxo treatment (CellTiter Glo); type: cell-based, human; details: for killing of / sensitivity to FFX of QM cells when Oxo is added to FOLFIRINOX: QM cells compared to E cells, 3D, 2 weeks
Description: Cell viability was measured using CellTiter Glo assay. […] Then, cells were fixed with 3.7% PFA and stained with crystal violet. Relative colony area was measured using Image J. (d) Images with 2D (Boyden chamber) and 3D invasion assays (type I collagen embedded) of PDAC cell lines incubated with Oxo for 3 days.

PDAC cell lines [2] = experiment: Clonogenic assay (crystal violet, colony area by Image J); type: cell-based, human; details: 2 weeks
Description: (§1) FIGS. 3A-D. Graphs showing relative cell growth of (a) QM and (b) E PDACs in 3D condition upon FFX and/or Oxo treatment with indicated concentrations for 2 weeks. Cell viability was measured using CellTiter Glo assay. Images showing growing PDACs (in 3D) under these conditions. (c) Graphs with results for clonogenic assay upon FFX and/or Oxo treatment with indicated concentrations for 2 weeks. Then, cells were fixed with 3.7% PFA and stained with crystal violet. Relative colony area was measured using Image J. (d) Images with 2D (Boyden chamber) and 3D invasion assays (type I collagen embedded) of PDAC cell lines incubated with Oxo for 3 days.
FIGS. 4A-F. Effects of TAK1 Knockout in PDAC EMT Plasticity. (a) Western blots showing complete ablation of TAK1 across PDAC cell lines. (b) Heatmaps based on RNA-ISH and total RNA-seq showing EMT signatures in TAK1 KO PDAC6 and PDAC9 cell lines. (c) Clonogenic assays for WT (non-targeting single guide RNA, sgRNA) and TAK1 KO cell lines treated with FFX for 2 weeks. Colony area was determined by Image J. (d) Images with 2D invasion assay (Boyden chamber) in TAK1 KO PDAC cell lines. (e) Graphs confirming functional ablation of TAK1 represented by TAK1 downstream activity of p-MEK1/2 and p-ERK1/2 under TGFbeta stimulation. (f) Graphs with results for clonogenic assay upon FFX and/or Takinib treatment with indicated concentrations for 2 weeks.

PDAC cell lines [3] = experiment: 2D (Boyden chamber) and 3D (type I collagen embedded) invasion assays; type: cell-based, human; details: Oxo for 3 days
Description: as §1

[4] = test system: QM and E PDAC monoculture and co-culture with CAF1; experiment: FFX dose response in PDAC monoculture and co-culture with CAF1; type: cell-based, human; details: both monocultures and CAF co-culture conditions
Description: (a) Dose response curves in QM and E PDAC monoculture and co-culture with CAF1, as well as CAF1 monoculture, following FFX treatment. (b) FFX IC50 for QM and E PDAC monoculture versus co-culture with CAF1. […] (a) Dose response curves in QM and E PDAC monoculture following combination 5z-7-oxozeaenol and FFX treatment. (b) Dose response curves in QM and E PDAC co-culture with CAF1 following combination 5z-7-oxozeaenol and FFX treatment. (c) Dose response curves in CAF1 monoculture following combination 5z-7-oxozeaenol and FFX treatment. […] (a) Dose response curves in QM and E PDAC monoculture following combination losartan and FFX treatment. (b) Dose response curves in QM and E PDAC co-culture with CAF1 following combination losartan and FFX treatment. (c) Dose response curves in CAF1 monoculture following combination losartan and FFX treatment. PDAC cells were co-cultured with fibroblasts (CAF) to more closely mimic the tumor microenvironment.

[5] = test system: PDAC monoculture and PDAC/CAF co-culture; experiment: Combinatorial drug treatment, percent killing and Bliss synergy; type: cell-based, human
Excerpt: FIGS. 9A-E. Combinational drug treatment (Oxo+FFX) in PDAC alone or PDAC+CAF coculture. […] (b) Combination drug treatments of PDAC 3 and PDAC 6, as monoculture or co-culture with CAF1. Values indicate percent killing, as compared to untreated cells, such that 0 indicates no killing and 100 indicates all cells killed. (c) Bliss plots of synergistic activity between 5z-7-oxozeaenol and FFX, where positive values represent synergistic activity, negative values represent anti-synergistic activity, and 0 represents no synergy. Synergy data are based on values from 8B. (d) Combination drug treatments of PDAC 8 and PDAC 9, as monoculture or co-culture with CAF1. Values indicate percent killing, as compared to untreated cells, such that 0 indicates no killing and 100 indicates all cells killed. (e) Combination drug treatments of CAF1 monoculture. Values indicate percent killing, as compared to untreated cells, such that 0 indicates no killing and 100 indicates all cells killed. FIG. 10. Combinational drug treatment (Losartan+FFX) in PDAC alone or PDAC+CAF coculture. Combination drug treatments of PDAC 3 and PDAC 6, as monoculture or co-culture with CAF1. Values indicate percent killing, as compared to untreated cells, such that 0 indicates no killing and 100 indicates all cells killed. In order to evaluate whether oxo could synergize with FOLFIRINOX, we performed combinatorial drug treatment in PDAC monoculture and PDAC/CAF co-culture settings (FIG. 9A). […] In order to assess for synergistic activity between Oxo and FOLFIRINOX, we used the Bliss independence model to analyze our drug combination experiments (Bliss, 1939; Yadav et al., 2015).

CAF1 monoculture = experiment: Dose response and combination treatment in CAF1 monoculture; type: cell-based; details: combination with FFX
Excerpt: FIGS. 7A-C. […] FIGS. 8A-C. […] Values indicate percent killing, as compared to untreated cells, such that 0 indicates no killing and 100 indicates all cells killed. (e) Combination drug treatments of CAF1 monoculture. Values indicate percent killing, as compared to untreated cells, such that 0 indicates no killing and 100 indicates all cells killed. […] In order to evaluate whether oxo could synergize with FOLFIRINOX, we performed combinatorial drug treatment in PDAC monoculture and PDAC/CAF co-culture settings (FIG. 9A). […] In order to assess for synergistic activity between Oxo and FOLFIRINOX, we used the Bliss independence model to analyze our drug combination experiments (Bliss, 1939; Yadav et al., 2015).

TAK1 = target: T1, TAK1 (Homo sapiens, UniProt O43318); details: cited from earlier work
T1 sequence (O43318 1-606): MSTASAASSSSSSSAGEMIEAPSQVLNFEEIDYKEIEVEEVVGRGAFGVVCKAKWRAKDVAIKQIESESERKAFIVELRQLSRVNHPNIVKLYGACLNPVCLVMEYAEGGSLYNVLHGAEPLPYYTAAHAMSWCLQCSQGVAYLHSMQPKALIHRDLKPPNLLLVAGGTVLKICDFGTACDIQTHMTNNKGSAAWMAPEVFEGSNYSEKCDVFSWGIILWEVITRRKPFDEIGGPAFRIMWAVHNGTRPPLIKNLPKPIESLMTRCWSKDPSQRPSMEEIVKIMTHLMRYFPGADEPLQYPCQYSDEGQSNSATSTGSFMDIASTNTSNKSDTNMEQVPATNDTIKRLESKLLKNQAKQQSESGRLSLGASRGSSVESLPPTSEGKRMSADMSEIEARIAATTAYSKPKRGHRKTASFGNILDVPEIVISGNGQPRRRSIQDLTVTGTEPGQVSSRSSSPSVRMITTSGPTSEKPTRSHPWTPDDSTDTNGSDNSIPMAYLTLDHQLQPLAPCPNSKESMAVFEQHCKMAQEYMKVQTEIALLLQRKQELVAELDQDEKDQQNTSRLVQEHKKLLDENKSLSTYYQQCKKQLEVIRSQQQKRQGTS
T1 sequence (Q15750 1-504 partner): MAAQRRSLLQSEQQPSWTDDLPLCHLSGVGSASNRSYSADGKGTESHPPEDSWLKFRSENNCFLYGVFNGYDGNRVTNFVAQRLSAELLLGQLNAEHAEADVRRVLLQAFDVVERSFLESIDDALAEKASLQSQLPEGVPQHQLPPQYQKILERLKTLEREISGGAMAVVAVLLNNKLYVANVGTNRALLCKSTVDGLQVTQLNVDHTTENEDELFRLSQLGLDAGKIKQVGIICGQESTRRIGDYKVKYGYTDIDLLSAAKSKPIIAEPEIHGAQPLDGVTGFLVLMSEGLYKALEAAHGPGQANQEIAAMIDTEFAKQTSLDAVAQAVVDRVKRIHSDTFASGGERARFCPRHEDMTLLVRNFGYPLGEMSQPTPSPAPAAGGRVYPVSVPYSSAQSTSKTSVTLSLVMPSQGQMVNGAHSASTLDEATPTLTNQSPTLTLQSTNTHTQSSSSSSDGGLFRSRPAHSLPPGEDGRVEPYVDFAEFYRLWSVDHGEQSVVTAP

MEK = details: cited from earlier work
FLT3 = target: T2, FLT3 (Homo sapiens, UniProt P36888); details: cited from earlier work
T2 sequence (P36888 27-993): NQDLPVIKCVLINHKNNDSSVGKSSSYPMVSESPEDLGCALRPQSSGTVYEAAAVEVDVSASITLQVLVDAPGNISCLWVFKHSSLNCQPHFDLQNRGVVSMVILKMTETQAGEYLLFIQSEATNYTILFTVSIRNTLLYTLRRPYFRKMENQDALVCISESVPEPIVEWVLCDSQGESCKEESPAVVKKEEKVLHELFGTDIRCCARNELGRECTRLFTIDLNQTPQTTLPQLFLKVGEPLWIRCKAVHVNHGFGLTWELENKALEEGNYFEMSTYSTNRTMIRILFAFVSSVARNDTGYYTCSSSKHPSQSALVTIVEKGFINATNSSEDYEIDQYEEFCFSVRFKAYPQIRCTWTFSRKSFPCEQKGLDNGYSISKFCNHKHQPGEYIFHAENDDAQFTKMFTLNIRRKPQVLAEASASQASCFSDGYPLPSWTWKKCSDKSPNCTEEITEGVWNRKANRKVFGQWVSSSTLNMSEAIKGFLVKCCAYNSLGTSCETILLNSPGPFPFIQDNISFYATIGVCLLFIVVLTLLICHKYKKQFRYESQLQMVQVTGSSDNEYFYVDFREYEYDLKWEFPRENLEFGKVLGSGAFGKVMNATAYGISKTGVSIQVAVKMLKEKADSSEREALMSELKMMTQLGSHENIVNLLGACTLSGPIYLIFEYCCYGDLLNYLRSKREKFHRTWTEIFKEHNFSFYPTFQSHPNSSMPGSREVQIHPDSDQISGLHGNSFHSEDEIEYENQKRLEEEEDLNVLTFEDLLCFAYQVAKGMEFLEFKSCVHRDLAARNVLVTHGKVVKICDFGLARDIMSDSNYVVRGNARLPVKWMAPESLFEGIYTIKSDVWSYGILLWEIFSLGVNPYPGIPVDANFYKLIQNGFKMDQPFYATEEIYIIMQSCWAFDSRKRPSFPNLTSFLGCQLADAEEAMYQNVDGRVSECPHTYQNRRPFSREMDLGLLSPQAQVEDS

SMILES: COc1cc(O)c2c(c1)/C=C/C[C@H](O)[C@H](O)C(=O)/C=C\C[C@H](C)OC2=O [Oxo, (5z)-7-oxozeaenol]
- E gene expression (RNA-ISH and RNA sequencing) ([1]; listed as (5z)-7-Oxozeaenol): enrichment
- QM gene expression (RNA-ISH and RNA sequencing) ([1]; listed as (5z)-7-Oxozeaenol): decreased
- E gene expression (RNA-ISH and RNA sequencing) ([1]; listed as oxo): increased
- QM gene expression (RNA-ISH and RNA sequencing) ([1]; listed as oxo): significantly suppressed
- mesenchymal gene expression (Hallmark EMT geneset) ([1]; PDAC 3, 6, and 8): significantly decreased
- mesenchymal gene expression (Hallmark EMT geneset) ([1]; PDAC 9): numerically decreased
- global mesenchymal gene expression (200 genes of Hallmark EMT geneset) ([1]; all lines tested, with vs without Oxo): numerically lower
- sensitivity to Oxo as a single agent (QM and E PDACs; E cells BxPC3 and DAN-G): sensitive
- killing of / sensitivity to FFX of QM cells when Oxo is added to FOLFIRINOX (QM and E PDACs): synergistic increased killing
- killing of / sensitivity to FFX of QM cells when Oxo is added to FOLFIRINOX (QM and E PDACs; listed as (5z)-7-Oxozeaenol): synergistically increased
- colony formation (PDAC cell lines [2]; Oxo-treated PDACs): significant reduction
- invasiveness / invasion (PDAC cell lines [3]): significant reduction
- migratory abilities / migration (PDAC cell lines [3]): significant reduction
- invasiveness / invasion (PDAC cell lines [3]; listed as (5z)-7-Oxozeaenol): reduced
- migratory abilities / migration (PDAC cell lines [3]; listed as (5z)-7-Oxozeaenol): reduced
- effect on PDAC cell response to FOLFIRINOX [4]: sensitized
- cell killing (cell viability) ([5]; increasing doses, 3 days, monoculture and co-culture): dose-dependent cell killing
- effect on CAFs alone (CAF1 monoculture): little effect
- inhibition of TAK1 (TAK1): inhibit
- inhibition of MEK (MEK): inhibit
- inhibition of FLT3 (FLT3): inhibit

SMILES: CCCCc1nc(Cl)c(CO)n1Cc1ccc(-c2ccccc2-c2nn[nH]n2)cc1 [Losartan, reference compound]
- effect on PDAC cell response to FOLFIRINOX [4]: did not affect
- additional killing when combined with FOLFIRINOX ([5]; PDAC 3 and PDAC 6, monoculture or co-culture with CAF1): did not demonstrate any additional killing
- cell growth when combined with FOLFIRINOX ([5]; low FOLFIRINOX settings): increased cell growth
- effect on CAFs alone (CAF1 monoculture): no effect

SMILES: CCCn1/c(=N/C(=O)c2cccc(C(N)=O)c2)[nH]c2ccccc21 [Takinib, reference compound]
- sensitization of FOLFIRINOX response (clonogenic assay) (PDAC cell lines [2]; QM PDAC cells, FFX and/or Takinib): not able to sensitize
- inhibition of TAK1 (TAK1): selective inhibitor
